Test results: ChEMBL document CHEMBL3271949, “Drugs derived from cannabinoids. 3. Sulfur analogs, thiopyranobenzopyrans and thienobenzopyrans” (J Med Chem, 1976)
Calls of active or inactive are those of the source.

Experiments:
[1] = system: Canis familiaris; assay: Toxicity in beagle-like dog assessed as reduced reactivity with ataxia observed for 24 hrs at 10 mg/kg, po single dose; format: organism-based, Canis lupus familiaris; design: dose 10 mg/kg, route oral; conditions: in vivo
[2] = system: Mus musculus; assay: Tranquilizer activity in albino BALB/cJ mouse assessed as reduction in footshock-induced fighting behavior at 5 mg/kg, po after 90 mins; format: functional; design: scale not given: the % may be the effect or the level left
[3] = system: Rattus norvegicus; assay: Spontaneous motor activity in Long-Evans rat at 10 mg/kg measured up to 2 hrs relative to control; format: functional
[4] = Toxicity in po dosed mouse; format: organism-based; conditions: in vivo
[5] = system: Mus musculus; assay: Antinociceptive activity in po dosed mouse assessed as inhibition of acetic acid-induced writhing administered 30 mins before acetic acid challenge measured after 5 to 20 mins; format: functional
[6] = organism: Mus musculus; assay: Analgetic activity in mouse by hot-plate test; format: functional
[7] = system: Mus musculus; assay: Antidepressant activity in mouse assessed as potentiation of (+/-)-dopa-induced motor responses at 5 mg/kg, po administered 4 hrs before dopa challenge; format: functional, organism-based; design: dose 5 mg/kg
[8] = system: Mus musculus; assay: Tranquilizer activity in albino BALB/cJ mouse assessed as reduction in footshock-induced fighting behavior at 10 mg/kg, po after 90 mins; format: functional; design: scale not given: the % may be the effect or the level left
[9] = system: Canis familiaris; assay: Toxicity in beagle-like dog assessed as reduced reactivity with ataxia observed for 24 hrs at 1 mg/kg, po single dose; format: organism-based, Canis lupus familiaris; design: dose 1 mg/kg, route oral; conditions: in vivo
[10] = system: Rattus norvegicus; assay: Spontaneous motor activity in Long-Evans rat at 5 mg/kg measured up to 2 hrs relative to control; format: functional
[11] = system: Felis catus; assay: Sedative-hypnotic activity in po dosed cat assessed as rapid eye movement sleep; format: functional, organism-based
[12] = system: Rattus norvegicus; assay: Analgetic activity in po dosed Sprague-Dawley rat assessed as pain threshold after 15 to 90 mins by tail-flick test; format: functional
[13] = system: Rattus norvegicus; assay: Antihypertensive activity in spontaneous hypertensive rat assessed as reduction of blood pressure at 10 mg/kg, po after 48 hrs; format: functional; design: scale not given: the % may be the effect or the level left
[14] = system: Rattus norvegicus; assay: Antihypertensive activity in spontaneous hypertensive rat assessed as reduction of blood pressure at 10 mg/kg, po after 4 hrs; format: functional; design: scale not given: the % may be the effect or the level left
[15] = system: Rattus norvegicus; assay: Antihypertensive activity in spontaneous hypertensive rat assessed as reduction of blood pressure at 10 mg/kg, po after 24 hrs; format: functional; design: scale not given: the % may be the effect or the level left
[16] = system: Canis familiaris; assay: Toxicity in beagle-like dog assessed as reduced reactivity with ataxia observed for 24 hrs at 0.1 mg/kg, po single dose; format: organism-based, Canis lupus familiaris; design: dose 0.1 mg/kg, route oral; conditions: in vivo

Row | SMILES | Activity [1] | Activity [2] | Activity [3] | LD50 [4] | ED50 [5] | ED50 [6] | Activity [7] | Activity [8] | Activity [9] | Activity [10] | Activity [11] | ED50 [12] | Activity [13] | Activity [14] | Activity [15] | Activity [16]
1 | CCCCCC(C)C(C)c1cc(O)c2c(c1)OC(C)(C)C1=C2CCSC1 (stereo unspecified) | Toxic | 1% | 1% | > 300 mg/kg | > 40 mg/kg | > 40 mg/kg | Active | – | – | – | – | – | – | – | – | –
2 | CCCCCC(C)C(C)c1cc(OC(=O)CCCN2CCCCC2)c2c(c1)OC(C)(C)C1=C2CCS1.Cl (stereo unspecified) | – | – | – | > 300 mg/kg | 24 mg/kg | – | Active | 33% | Non-toxic | 1% | – | – | – | – | – | –
3 | CCCCCC(C)C(C)c1cc(OC(=O)CCCN2CCCCC2)c2c(c1)OC(C)(C)C1=C2CCCS1.Cl (stereo unspecified) | – | 1% | – | > 300 mg/kg | 14.7 mg/kg | – | Active | – | – | 66% | – | – | – | – | – | –
4 | CCCCCC(C)C(C)c1cc(O)c2c(c1)OC(C)(C)c1sccc1-2 (stereo unspecified) | – | – | – | > 300 mg/kg | > 10 mg/kg | – | Active | 1% | – | 1% | – | – | – | – | – | –
5 | CCCCCC(C)C(C)c1cc(OC(=O)C(C)CCN2CCOCC2)c2c(c1)OC(C)(C)C1=C2CCCS1.Cl.O (stereo unspecified) | – | – | – | > 300 mg/kg | 22.6 mg/kg | – | Active | 66% | – | 1% | inactive | – | – | – | – | –
6 | CCCCCC(C)C(C)c1cc(OC(=O)CCCN2CCOCC2)c2c(c1)OC(C)(C)C1=C2CCS1.Cl (stereo unspecified) | – | 1% | – | > 300 mg/kg | – | > 50 mg/kg | Active | 33% | Non-toxic | 1% | – | – | – | – | – | –
7 | CCCCCC(C)C(C)c1cc(O)c2c(c1)OC(C)(C)C1=C2CCCS1 (stereo unspecified) [TINABINOL] | – | – | – | > 300 mg/kg | 8.6 mg/kg | 5.7 mg/kg | Active | 1% | Toxic | 1% | inactive | 2.7 mg/kg | 19% | 15% | 28% | –
8 | CCCCCC(C)C(C)c1cc(O)c2c(c1)OC(C)(C)C1=C2CSC1 (stereo unspecified) | Toxic | – | – | > 300 mg/kg | 51.7 mg/kg | > 120 mg/kg | Active | 33% | – | 1% | – | – | – | – | – | –
9 | CCCCCC(C)C(C)c1cc(O)c2c(c1)OC(C)(C)C1=C2CCS1 (stereo unspecified) | – | 1% | – | > 300 mg/kg | 71.8 mg/kg | 12.1 mg/kg | Active | 33% | – | 1% | Active | – | – | 17% | 2% | Toxic
